biological target: T1, angiotensin II type 1 receptor (Oryctolagus cuniculus, UniProt P34976); experiment: Angiotensin II receptor antagonistic activity in isolated rabbit blood vessels (thoracic aorta ring, angiotensin II-induced contraction); format: cell-based; settings: 0.1 μM test compound, angiotensin II (10 nM)-induced contraction, read-out: Angiotensin II activity inhibitiom rate (%) at 0.1 μM concentration
T1 construct: By using a specimen of isolated rabbit blood vessels; from tissue; host or cells: rabbit (New Zealand White) thoracic aorta ring
T1 sequence (P34976 1-359): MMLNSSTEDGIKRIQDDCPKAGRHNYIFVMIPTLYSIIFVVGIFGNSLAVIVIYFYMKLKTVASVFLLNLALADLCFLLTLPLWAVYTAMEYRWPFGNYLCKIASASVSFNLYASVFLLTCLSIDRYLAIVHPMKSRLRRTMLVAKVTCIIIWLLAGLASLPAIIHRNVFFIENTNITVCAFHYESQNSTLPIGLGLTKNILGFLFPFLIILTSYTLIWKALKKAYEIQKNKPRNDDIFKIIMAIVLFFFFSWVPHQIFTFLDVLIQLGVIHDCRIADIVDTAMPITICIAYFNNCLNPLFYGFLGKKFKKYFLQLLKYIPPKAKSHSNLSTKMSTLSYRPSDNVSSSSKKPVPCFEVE

| inhibition at 0.1 µM | SMILES |
| --- | --- |
| 86.5% | CCCCc1nc(C)n(-c2ncc(OCCSC)cn2)c(=O)c1Cc1ccc(-c2ccccc2-c2noc(=O)[nH]2)nc1 [Example 28, 3-{2-{5-{{4-butyl-2-methyl-1-{5-[2-(methylthio)ethoxy]pyrimidin-2-yl}-6-oxo-1,6-dihydropyrimidin-5-yl}methyl}pyridin-2-yl}phenyl}-1,2,4-oxadiazol-5(4H)-one] |
| 96.3% | CCCCc1nc(C)n(-c2ncc(OCCS(C)(=O)=O)cn2)c(=O)c1Cc1ccc(-c2ccccc2-c2noc(=O)[nH]2)nc1 [Example 29, 3-{2-{5-{{4-butyl-2-methyl-1-{5-[2-(methylsulfonyl)ethoxy]pyrimidin-2-yl}-6-oxo-1,6-dihydropyrimidin-5-yl}methyl}pyridin-2-yl}phenyl}-1,2,4-oxadiazol-5(4H)-one] |
| 90.8% | CCCCc1nc(C)n(-c2ncc(OCC)cn2)c(=O)c1Cc1ccc(-c2ccccc2-c2nnn[nH]2)nc1 [Example 2, 5-{{6-[2-(1H-tetrazol-5-yl)phenyl]pyridin-3-yl}methyl}-6-butyl-3-(5-ethoxypyrimidin-2-yl)-2-methylpyrimidin-4(3H)-one] |
| 100% | CCCCc1nc(C)n(-c2ncc(OC)cn2)c(=O)c1Cc1ccc(-c2ccccc2-c2nnn[nH]2)nc1 [Example 1, 5-{{6-[2-(1H-tetrazol-5-yl)phenyl]pyridin-3-yl}methyl}-6-butyl-3-(5-methoxypyrimidin-2-yl)-2-methylpyrimidin-4(3H)-one] |
| 100% | CCCCc1nc(C)n(-c2ncc(OCCS(C)(=O)=O)cn2)c(=O)c1Cc1ccc(-c2ccccc2-c2nnn[nH]2)nc1 [Example 13, 5-{{6-[2-(1H-tetrazol-5-yl)phenyl]pyridin-3-yl}methyl}-6-butyl-2-methyl-3-{5-[2-(methylsulfonyl)ethoxy]pyrimidin-2-yl}pyrimidin-4(3H)-one] |
| 100% | CCCCc1nc(C)n(-c2ncc(OCCSC)cn2)c(=O)c1Cc1ccc(-c2ccccc2-c2nnn[nH]2)nc1 [Example 12, 5-{{6-[2-(1H-tetrazol-5-yl)phenyl]pyridin-3-yl}methyl}-6-butyl-2-methyl-3-{5-[2-(methylthio)ethoxy]pyrimidin-2-yl}pyrimidin-4(3H)-one] |
| 72.9% | CCCCc1nc(C)n(-c2ncc(OC)cn2)c(=O)c1Cc1ccc(-c2ccccc2-c2noc(=O)[nH]2)nc1 [Example 16, 3-{2-{5-{[4-butyl-1-(5-methoxypyrimidin-2-yl)-2-methyl-6-oxo-1,6-dihydropyrimidin-5-yl]methyl}pyridin-2-yl}phenyl}-1,2,4-oxadiazol-5(4H)-one] |
| 59.3% | CCCCc1nc(C)n(-c2ccccn2)c(=O)c1Cc1ccc(-c2ccccc2-c2noc(=O)[nH]2)nc1 [Example 14, 3-{2-{5-{[4-butyl-2-methyl-6-oxo-1-(pyridin-2-yl)-1,6-dihydropyrimidin-5-yl]methyl}pyridin-2-yl}phenyl}-1,2,4-oxadiazol-5(4H)-one] |

| SMILES | inhibition at 0.1 µM |
| --- | --- |
| CCCCc1nc(C)n(-c2cc(C)ccn2)c(=O)c1Cc1ccc(-c2ccccc2-c2noc(=O)[nH]2)nc1 [Example 15, 3-{2-{5-{[4-butyl-2-methyl-1-(4-methylpyridin-2-yl)-6-oxo-1,6-dihydropyrimidin-5-yl]methyl}pyridin-2-yl}phenyl}-1,2,4-oxadiazol-5(4H)-one] | 78.3% |
| CCCCc1nc(C2CC2)n(-c2ncc(OC)cn2)c(=O)c1Cc1ccc(-c2ccccc2-c2noc(=O)[nH]2)nc1 [Example 22, 3-{2-{5-{[4-butyl-2-cyclopropyl-1-(5-methoxypyrimidin-2-yl)-6-oxo-1,6-dihydropyrimidin-5-yl]methyl}pyridin-2-yl}phenyl}-1,2,4-oxadiazol-5(4H)-one] | 59.5% |
| CCCCc1nc(C)n(-c2ncc(OCC)cn2)c(=O)c1Cc1ccc(-c2ccccc2-c2noc(=O)[nH]2)nc1 [Example 17, 3-{2-{5-{[4-butyl-1-(5-ethoxypyrimidin-2-yl)-2-methyl-6-oxo-1,6-dihydropyrimidin-5-yl]methyl}pyridin-2-yl}phenyl}-1,2,4-oxadiazol-5(4H)-one] | 52.1% |

biological target: T2, human PPARγ2 (Homo sapiens, UniProt P37231); experiment: PPARγ activation activity, Gal4-PPARγ2 LBD luciferase transfection assay using COS7 cells; format: cell-based; settings: Gal4-human PPARγ2 LBD chimera, 16 hours, rosiglitazone = 100%
T2 construct: the amino acids 182 to 505 of human PPARγ2; expressed in transfected cells; host or cells: COS7 cells (African green monkey kidney)
T2 sequence (P37231 182-505): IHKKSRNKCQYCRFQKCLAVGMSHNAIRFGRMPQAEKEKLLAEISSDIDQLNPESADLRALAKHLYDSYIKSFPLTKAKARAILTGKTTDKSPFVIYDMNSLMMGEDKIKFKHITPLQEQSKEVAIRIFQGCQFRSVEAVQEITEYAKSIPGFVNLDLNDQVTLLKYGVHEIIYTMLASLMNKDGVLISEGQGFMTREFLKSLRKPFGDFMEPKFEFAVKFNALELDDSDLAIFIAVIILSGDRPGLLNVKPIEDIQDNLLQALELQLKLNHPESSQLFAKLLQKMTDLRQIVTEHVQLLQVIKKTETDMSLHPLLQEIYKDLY
Experimental: The agonistic activity of the compounds of the invention on PPARγ was measured based on the transfection assay using COS7 cells (DS Pharma Biomedical Co., Ltd., Osaka, Japan), which are the cell line derived from the kidney of the African green monkey. COS7 cells were cultured under 5% CO2 concentration, and DMEM medium containing 10% fetal bovine serum, glutamic acid, and antibiotics was used as a medium.
As an expression vector, a chimera in which DNA binding domain of Gal4, which is a yeast transcription factor, and ligand binding domain of human PPARγ2 are fused, i.e., a fused product between the amino acids 1 to 147 of Gal4 transcription factor and the amino acids 182 to 505 of human PPARγ2, was used. Furthermore, as a reporter vector, a firefly luciferase containing five copies of Gal4 recognition sequence in the promoter region was used. Plasmid transfection to the cells was performed according to a method which uses jetPEI (trade name, manufactured by Funakoshi Co., Ltd., Tokyo, Japan). Furthermore, β-galactosidase expression vector was employed as an internal standard.
After the transfection of the cells, the medium was replaced with a DMEM medium (containing 1% serum) added with the test compound, and the cells were further cultured for 16 hours. After that, the luciferase activity and β-galactosidase activity in the cell lysis solution were measured.
For the present test, dimethyl sulfoxide (DMSO) was used for dissolution and dilution of the test compounds, and during the cell treatment, the DMSO concentration in DMEM medium (containing 1% serum) was adjusted to 0.1%. As a positive compound, rosiglitazone (trade name, manufactured by ALEXIS Corporation, Switzerland) was used. The luciferase activity (%) of the test compounds (1 to 30 μmol/L) was calculated when the luciferase activity of rosiglitazone (3 to 10 μmol/L) is 100% and the luciferase activity in the absence of the test compound is 0%. The 50% effective concentration of the test compound (EC50, 50% effect concentration) was calculated by using SAS Preclinical Package Ver 5.0 (trade name, manufactured by SAS institute Japan Co., Tokyo, Japan), which is a statistical analysis program.
EC50 values of these compounds are described in Table 2. […] Under the same condition, the PPARγ activation activity of telmisartan, i.e., EC50, was 1 to 5 μM.

| SMILES | EC50 |
| --- | --- |
| CCCCc1nc(C)n(-c2cc(C)ccn2)c(=O)c1Cc1ccc(-c2ccccc2-c2noc(=O)[nH]2)nc1 [Example 15, 3-{2-{5-{[4-butyl-2-methyl-1-(4-methylpyridin-2-yl)-6-oxo-1,6-dihydropyrimidin-5-yl]methyl}pyridin-2-yl}phenyl}-1,2,4-oxadiazol-5(4H)-one] | 3.61 µM |
| CCCCc1nc(C2CCCCC2)n(-c2ncc(OCC)cn2)c(=O)c1Cc1ccc(-c2ccccc2-c2noc(=O)[nH]2)nc1 [Example 27, 3-{2-{5-{[4-butyl-2-cyclohexyl-1-(5-ethoxypyrimidin-2-yl)-6-oxo-1,6-dihydropyrimidin-5-yl]methyl}pyridin-2-yl}phenyl}-1,2,4-oxadiazol-5(4H)-one] | 0.67 µM |
| CCCCc1nc(C2CC2)n(-c2ncc(OC)cn2)c(=O)c1Cc1ccc(-c2ccccc2-c2noc(=O)[nH]2)nc1 [Example 22, 3-{2-{5-{[4-butyl-2-cyclopropyl-1-(5-methoxypyrimidin-2-yl)-6-oxo-1,6-dihydropyrimidin-5-yl]methyl}pyridin-2-yl}phenyl}-1,2,4-oxadiazol-5(4H)-one] | 1.55 µM |
| CCCCc1nc(C2CCC2)n(-c2ncc(OC)cn2)c(=O)c1Cc1ccc(-c2ccccc2-c2noc(=O)[nH]2)nc1 [Example 24, 3-{2-{5-{[4-butyl-2-cyclobutyl-1-(5-methoxypyrimidin-2-yl)-6-oxo-1,6-dihydropyrimidin-5-yl]methyl}pyridin-2-yl}phenyl}-1,2,4-oxadiazol-5(4H)-one] | 1.46 µM |
| CCCCc1nc(C(C)C)n(-c2ncc(OC)cn2)c(=O)c1Cc1ccc(-c2ccccc2-c2noc(=O)[nH]2)nc1 [Example 20, 3-{2-{5-{[4-butyl-2-isopropyl-1-(5-methoxypyrimidin-2-yl)-6-oxo-1,6-dihydropyrimidin-5-yl]methyl}pyridin-2-yl}phenyl}-1,2,4-oxadiazol-5(4H)-one] | 0.85 µM |
| CCCCc1nc(C(C)C)n(-c2ncc(OCC)cn2)c(=O)c1Cc1ccc(-c2ccccc2-c2nnn[nH]2)nc1 [Example 6, 5-{{6-[2-(1H-tetrazol-5-yl)phenyl]pyridin-3-yl}methyl}-6-butyl-3-(5-ethoxypyrimidin-2-yl)-2-isopropylpyrimidin-4(3H)-one] | 1.36 µM |
| CCCCc1nc(C2CCC2)n(-c2ncc(OCC)cn2)c(=O)c1Cc1ccc(-c2ccccc2-c2noc(=O)[nH]2)nc1 [Example 25, 3-{2-{5-{[4-butyl-2-cyclobutyl-1-(5-ethoxypyrimidin-2-yl)-6-oxo-1,6-dihydropyrimidin-5-yl]methyl}pyridin-2-yl}phenyl}-1,2,4-oxadiazol-5(4H)-one] | 0.82 µM |
| CCCCc1nc(C2CCCC2)n(-c2ncc(OCC)cn2)c(=O)c1Cc1ccc(-c2ccccc2-c2noc(=O)[nH]2)nc1 [Example 26, 3-{2-{5-{[4-butyl-2-cyclopentyl-1-(5-ethoxypyrimidin-2-yl)-6-oxo-1,6-dihydropyrimidin-5-yl]methyl}pyridin-2-yl}phenyl}-1,2,4-oxadiazol-5(4H)-one] | 0.38 µM |
| CCCCc1nc(CC)n(-c2ncc(OC)cn2)c(=O)c1Cc1ccc(-c2ccccc2-c2noc(=O)[nH]2)nc1 [Example 18, 3-{2-{5-{[4-butyl-2-ethyl-1-(5-methoxypyrimidin-2-yl)-6-oxo-1,6-dihydropyrimidin-5-yl]methyl}pyridin-2-yl}phenyl}-1,2,4-oxadiazol-5(4H)-one] | 3.39 µM |
| CCCCc1nc(C)n(-c2ncc(OCC)cn2)c(=O)c1Cc1ccc(-c2ccccc2-c2noc(=O)[nH]2)nc1 [Example 17, 3-{2-{5-{[4-butyl-1-(5-ethoxypyrimidin-2-yl)-2-methyl-6-oxo-1,6-dihydropyrimidin-5-yl]methyl}pyridin-2-yl}phenyl}-1,2,4-oxadiazol-5(4H)-one] | 3.12 µM |
| CCCCc1nc(C)n(-c2ncc(C(F)(F)F)cc2Cl)c(=O)c1Cc1ccc(-c2ccccc2-c2nnn[nH]2)cn1 [Example 32, 5-{{5-[2-(1H-tetrazol-5-yl)phenyl]pyridin-2-yl}methyl}-6-butyl-3-[3-chloro-5-(trifluoromethyl)pyridin-2-yl]-2-methylpyrimidin-4(3H)-one] | 2.74 µM |
| CCCCc1nc(CC)n(-c2ncc(OCC)cn2)c(=O)c1Cc1ccc(-c2ccccc2-c2noc(=O)[nH]2)nc1 [Example 19, 3-{2-{5-{[4-butyl-1-(5-ethoxypyrimidin-2-yl)-2-ethyl-6-oxo-1,6-dihydropyrimidin-5-yl]methyl}pyridin-2-yl}phenyl}-1,2,4-oxadiazol-5(4H)-one] | 1.5 µM |

Source: US8778954B2, “Phenylpyridine derivative and medicinal agent comprising same” (Kowa Company, Ltd., priority 2009, dated 2014)
